The values below come from patent US10202360B2 (CELGENE QUANTICEL RESEARCH, INC., priority 2016, dated 2019).

In the assay the target is CREBBP (Homo sapiens (Human), UniProt Q92793). Briefly: In vitro enzyme inhibition assay - CREBBP inhibition (AlphaScreen, biotinylated H4-tetraacetyl peptide). The assay is classed as binding. The following applies: Table 28; AlphaScreen, H4-tetraacetyl peptide. An outline of the steps:
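Displacement of 20 nM biotinylated tetraacetyl-H4 peptide from 50 nM E. coli-expressed His-CREBBP, measured by AlphaScreen after bead equilibration for 2 h.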
For orientation: In Alpha technology, singlet oxygen from a donor bead excites a nearby acceptor bead.

SMILES strings stand for the structures.

Chain of CREBBP (Q92793 1081-1197): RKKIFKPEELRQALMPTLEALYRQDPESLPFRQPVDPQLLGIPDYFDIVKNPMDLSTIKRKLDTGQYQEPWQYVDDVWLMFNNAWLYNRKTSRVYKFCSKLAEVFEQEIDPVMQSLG

One may read the IC50 as the concentration needed to halve the response being measured. On to `Cc1cc(-c2cc(CS(=O)(=O)C(C)C)nc(Oc3ccc(F)cc3F)n2)cn(C)c1=O` [Example 95, 5-[2-(2,4-Difluoro-phenoxy)-6-(propane-2-sulfonylmethyl)-pyrimidin-4-yl]-1,3-dimethyl-1H-pyridin-2-one], for which the IC50 is less than 500 nM.

Compound `CCS(=O)(=O)Cc1cc(-c2cc(C)c(=O)n(C)c2)nc(Oc2ccc(F)cc2F)n1` [Example 96, 5-[2-(2,4-Difluoro-phenoxy)-6-ethanesulfonylmethyl-pyrimidin-4-yl]-1,3-dimethyl-1H-pyridin-2-one] gave an IC50 of less than 500 nM. The result for `CCCCS(=O)(=O)Nc1cc(-c2cn(C)c(=O)c3ccccc23)nc(Oc2c(C)cccc2C)n1` [Example 97, Butane-1-sulfonic acid [2-(2,6-dimethyl-phenoxy)-6-(2-methyl-1-oxo-1,2-dihydro-isoquinolin-4-yl)-pyrimidin-4-yl]-amide] reads 500 to 5000 nM. Then `CCCCS(=O)(=O)Nc1cc(-c2cc(C)c(=O)n(C)c2)nc(Oc2c(C)cc(F)cc2Cl)n1` [Example 98, Butane-1-sulfonic acid [2-(2-chloro-4-fluoro-6-methyl-phenoxy)-6-(1,5-dimethyl-6-oxo-1,6-dihydro-pyridin-3-yl)-pyrimidin-4-yl]-amide], with less than 500 nM; and `CCCS(=O)(=O)Nc1cc(-c2cc(C)c(=O)n(C)c2)nc(Oc2c(C)cc(F)cc2Cl)n1` [Example 99, Propane-1-sulfonic acid [2-(2-chloro-4-fluoro-6-methyl-phenoxy)-6-(1,5-dimethyl-6-oxo-1,6-dihydro-pyridin-3-yl)-pyrimidin-4-yl]-amide], with less than 500 nM. On to `Cc1cc(F)cc(Cl)c1Oc1nc(NS(=O)(=O)C(C)C)cc(-c2cc(C)c(=O)n(C)c2)n1` [Example 100, Propane-2-sulfonic acid [2-(2-chloro-4-fluoro-6-methyl-phenoxy)-6-(1,5-dimethyl-6-oxo-1,6-dihydro-pyridin-3-yl)-pyrimidin-4-yl]-amide], for which the IC50 was less than 500 nM. Then `CCCS(=O)(=O)Nc1cc(-c2cc(C)c(=O)n(C)c2)nc(Oc2c(C)cccc2Cl)n1` [Example 101, Propane-1-sulfonic acid [2-(2-chloro-6-methyl-phenoxy)-6-(1,5-dimethyl-6-oxo-1,6-dihydro-pyridin-3-yl)-pyrimidin-4-yl]-amide], with less than 500 nM; and `CCCCS(=O)(=O)Nc1cc(-c2ccc(=O)n(C)c2)nc(Oc2c(C)cccc2Cl)n1` [Example 102, Butane-1-sulfonic acid [2-(2-chloro-6-methyl-phenoxy)-6-(1-methyl-6-oxo-1,6-dihydro-pyridin-3-yl)-pyrimidin-4-yl]-amide], with less than 500 nM. Consider `CCCS(=O)(=O)Nc1cc(-c2ccc(=O)n(C)c2)nc(Oc2c(C)cccc2Cl)n1` [Example 103, Propane-1-sulfonic acid [2-(2-chloro-6-methyl-phenoxy)-6-(1-methyl-6-oxo-1,6-dihydro-pyridin-3-yl)-pyrimidin-4-yl]-amide], for which the IC50 was less than 500 nM. In turn, `Cc1cccc(Cl)c1Oc1nc(NS(=O)(=O)C(C)C)cc(-c2ccc(=O)n(C)c2)n1` [Example 104, Propane-2-sulfonic acid [2-(2-chloro-6-methyl-phenoxy)-6-(1-methyl-6-oxo-1,6-dihydro-pyridin-3-yl)-pyrimidin-4-yl]-amide] registered an IC50 of less than 500 nM. `COc1cc(-c2cc(NS(=O)(=O)C(C)C)nc(Oc3c(C)cccc3C)n2)cn(C)c1=O` [Example 105, N-(2-(2,6-dimethylphenoxy)-6-(5-methoxy-1-methyl-6-oxo-1,6-dihydropyridin-3-yl)pyrimidin-4-yl)propane-2-sulfonamide]: the IC50 is less than 500 nM. As to `CCCCS(=O)(=O)Nc1cc(-c2cc(OC)c(=O)n(C)c2)nc(Oc2c(C)cccc2C)n1` [Example 106, N-(2-(2,6-dimethylphenoxy)-6-(5-methoxy-1-methyl-6-oxo-1,6-dihydropyridin-3-yl)pyrimidin-4-yl)butane-1-sulfonamide], the IC50 is less than 500 nM. The result for `CCCS(=O)(=O)Nc1cc(Oc2c(C)cccc2Cl)nc(-c2cc(C)c(=O)n(C)c2)n1` [Example 107, Propane-1-sulfonic acid [6-(2-chloro-6-methyl-phenoxy)-2-(1,5-dimethyl-6-oxo-1,6-dihydro-pyridin-3-yl)-pyrimidin-4-yl]-amide] reads less than 500 nM; that for `CCCCS(=O)(=O)Nc1cc(-c2ccc(=O)n(C)c2)nc(Oc2c(C)cccc2C#N)n1` [Example 108, Butane-1-sulfonic acid [2-(2-cyano-6-methyl-phenoxy)-6-(1-methyl-6-oxo-1,6-dihydro-pyridin-3-yl)-pyrimidin-4-yl]-amide], less than 500 nM; that for `CCCS(=O)(=O)Nc1cc(-c2ccc(=O)n(C)c2)nc(Oc2c(C)cccc2C#N)n1` [Example 109, Propane-1-sulfonic acid [2-(2-cyano-6-methyl-phenoxy)-6-(1-methyl-6-oxo-1,6-dihydro-pyridin-3-yl)-pyrimidin-4-yl]-amide], less than 500 nM. The result for `Cc1cccc(C#N)c1Oc1nc(NS(=O)(=O)C(C)C)cc(-c2ccc(=O)n(C)c2)n1` [Example 110, Propane-2-sulfonic acid [2-(2-cyano-6-methyl-phenoxy)-6-(1-methyl-6-oxo-1,6-dihydro-pyridin-3-yl)-pyrimidin-4-yl]-amide] reads less than 500 nM; that for `CCCS(=O)(=O)Nc1cc(-c2cc(C)c(=O)n(C)c2)nc(Oc2ccncc2C)n1` [Example 111, Propane-1-sulfonic acid [6-(1,5-dimethyl-6-oxo-1,6-dihydro-pyridin-3-yl)-2-(3-methyl-pyridin-4-yloxy)-pyrimidin-4-yl]-amide], 500 to 5000 nM. The result for `CCCS(=O)(=O)Nc1cc(-c2cc(C)c(=O)n(C)c2)nc(Oc2cnccc2C)n1` [Example 112, Propane-1-sulfonic acid [6-(1,5-dimethyl-6-oxo-1,6-dihydro-pyridin-3-yl)-2-(4-methyl-pyridin-3-yloxy)-pyrimidin-4-yl]-amide] reads less than 500 nM.

`CCCCS(=O)(=O)Nc1cc(-c2cc(Cl)c(=O)n(C)c2)nc(Oc2c(C)cccc2C#N)n1` [Example 114, Butane-1-sulfonic acid [6-(5-chloro-1-methyl-6-oxo-1,6-dihydro-pyridin-3-yl)-2-(2-cyano-6-methyl-phenoxy)-pyrimidin-4-yl]-amide] registered an IC50 of less than 500 nM.

Compound `Cc1cccc(C#N)c1Oc1nc(NS(=O)(=O)CCCF)cc(-c2cc(C)c(=O)n(C)c2)n1` [Example 115, 3-Fluoro-propane-1-sulfonic acid [2-(2-cyano-6-methyl-phenoxy)-6-(1,5-dimethyl-6-oxo-1,6-dihydro-pyridin-3-yl)-pyrimidin-4-yl]-amide] gave an IC50 of less than 500 nM. In turn, `CCS(=O)(=O)Nc1cc(-c2ccc(=O)n(C)c2)nc(Oc2c(C)cccc2F)n1` [Example 116, Ethanesulfonic acid [2-(2-fluoro-6-methyl-phenoxy)-6-(1-methyl-6-oxo-1,6-dihydro-pyridin-3-yl)-pyrimidin-4-yl]-amide] had an IC50 of less than 500 nM.

`Cc1cccc(F)c1Oc1nc(NS(=O)(=O)C(C)C)cc(-c2cc(Cl)c(=O)n(C)c2)n1` [Example 117, Propane-2-sulfonic acid [6-(5-chloro-1-methyl-6-oxo-1,6-dihydro-pyridin-3-yl)-2-(2-fluoro-6-methyl-phenoxy)-pyrimidin-4-yl]-amide] came in with an IC50 of less than 500 nM. As for `Cc1cccc(F)c1Oc1nc(NS(=O)(=O)C(C)C)cc(-c2ccc(=O)n(C)c2)n1` [Example 119, Propane-2-sulfonic acid [2-(2-fluoro-6-methyl-phenoxy)-6-(1-methyl-6-oxo-1,6-dihydro-pyridin-3-yl)-pyrimidin-4-yl]-amide], the IC50 was less than 500 nM. Then `CCCS(=O)(=O)Nc1cc(-c2ccc(=O)n(C)c2)nc(Oc2c(C)cccc2F)n1` [Example 120, Propane-1-sulfonic acid [2-(2-fluoro-6-methyl-phenoxy)-6-(1-methyl-6-oxo-1,6-dihydro-pyridin-3-yl)-pyrimidin-4-yl]-amide], with less than 500 nM; and `CCCCS(=O)(=O)Nc1cc(-c2cc(Cl)c(=O)n(C)c2)nc(Oc2c(C)cccc2F)n1` [Example 122, Butane-1-sulfonic acid [6-(5-chloro-1-methyl-6-oxo-1,6-dihydro-pyridin-3-yl)-2-(2-fluoro-6-methyl-phenoxy)-pyrimidin-4-yl]-amide], with less than 500 nM. As for `Cc1cccc(C#N)c1Oc1nc(NS(=O)(=O)CCCF)cc(-c2ccc(=O)n(C)c2)n1` [Example 123, 3-Fluoro-propane-1-sulfonic acid [2-(2-cyano-6-methyl-phenoxy)-6-(1-methyl-6-oxo-1,6-dihydro-pyridin-3-yl)-pyrimidin-4-yl]-amide], the IC50 is less than 500 nM.

Turning to `CCCCS(=O)(=O)Nc1cc(-c2ccc(=O)n(C)c2)nc(Oc2c(C)nn(C)c2C)n1` [Example 124, Butane-1-sulfonic acid [6-(1-methyl-6-oxo-1,6-dihydro-pyridin-3-yl)-2-(1,3,5-trimethyl-1H-pyrazol-4-yloxy)-pyrimidin-4-yl]-amide], the IC50 is less than 500 nM. Then `Cc1nn(C)c(C)c1Oc1nc(NS(=O)(=O)C(C)C)cc(-c2ccc(=O)n(C)c2)n1` [Example 125, Propane-2-sulfonic acid [6-(1-methyl-6-oxo-1,6-dihydro-pyridin-3-yl)-2-(1,3,5-trimethyl-1H-pyrazol-4-yloxy)-pyrimidin-4-yl]-amide], with less than 500 nM. `CCCS(=O)(=O)Nc1cc(-c2ccc(=O)n(C)c2)nc(Oc2c(C)nn(C)c2C)n1` [Example 126, Propane-1-sulfonic acid [6-(1-methyl-6-oxo-1,6-dihydro-pyridin-3-yl)-2-(1,3,5-trimethyl-1H-pyrazol-4-yloxy)-pyrimidin-4-yl]-amide]: the IC50 is less than 500 nM.

The compound `CCn1nc(C)c(Oc2nc(NS(=O)(=O)C(C)C)cc(-c3cc(C)c(=O)n(C)c3)n2)c1C` [Example 127, Propane-2-sulfonic acid [6-(1,5-dimethyl-6-oxo-1,6-dihydro-pyridin-3-yl)-2-(1-ethyl-3,5-dimethyl-1H-pyrazol-4-yloxy)-pyrimidin-4-yl]-amide] yielded a concentration for half-maximal inhibition (IC50) of less than 500 nM.
